Source: ChEMBL document CHEMBL4184172, “Isosteric ribavirin analogues: Synthesis and antiviral activities” (Bioorg Med Chem Lett, 2018)
In brackets after ≈: the same amount, converted by molar mass. Activity calls are given as the source filed them. The calls are words filed in the database; no cut-off is given here.

Key:
[1] = system: Influenza A virus; assay: Antiviral activity against Influenza A virus H5N1 (A/duck/Novosibirsk/56/2005) infected in pig SPEV cells assessed as protection against virus-induced cytopathic effect; assay type: functional, organism-based; conditions: for Activity: Influenza A virus (A/duck/Novosibirsk/56/2005(H5N1))
[2] = system: Vero C1008; assay: Cytotoxicity against African green monkey Vero E6 cells assessed as alterations in cell morphology at 1000 ug/ml by microscopic analysis; assay type: cell-based; conditions: chlorocebus sabaeus
[3] = Cytotoxicity against pig SPEV cells at 150 ug/ml by microscopic analysis; assay type: cell-based, Sus scrofa
[4] = system: Hepatitis C virus; assay: Antiviral activity against Hepatitis C virus infected in pig SPEV cells assessed as protection against virus-induced cytopathic effect; assay type: functional, organism-based, Hepacivirus hominis
[5] = Cytotoxicity against African green monkey Vero E6 cells assessed as alterations in cell morphology by microscopic analysis; assay type: cell-based, Vero C1008; conditions: chlorocebus sabaeus
[6] = system: Human alphaherpesvirus 1; assay: Antiviral activity against Human herpesvirus 1 L2 infected in African green monkey Vero E6 cells assessed as protection against virus-induced cytopathic effect; assay type: functional, organism-based; conditions: Human alphaherpesvirus 1, L2, Vero C1008
[7] = Cytotoxicity against pig SPEV cells by microscopic analysis; assay type: cell-based, Sus scrofa

| SMILES | Activity [1] | Activity [2] | Activity [3] | IC50 [4] [µg/mL] | CC50 [5] [µg/mL] | IC50 [6] [µg/mL] | IC50 [1] [µg/mL] | CC50 [7] [µg/mL] |
| --- | --- | --- | --- | --- | --- | --- | --- | --- |
| Cc1nc(-c2ncn([C@H]3C[C@H](O)[C@@H](CO)O3)n2)no1 | inactive | Non-Toxic | Non-Toxic |  |  |  |  |  |
| OC[C@H]1O[C@@H](n2cnc(-c3noc(-c4ccccc4)n3)n2)[C@H](O)[C@@H]1O |  | Non-Toxic | Non-Toxic | 8.8 (≈ 25.5 µM) | 380 (≈ 1100 µM) |  |  |  |
| OC[C@H]1O[C@@H](n2cnc(-c3ncon3)n2)[C@H](O)[C@@H]1O |  | Non-Toxic | Non-Toxic |  |  | 250 (≈ 929 µM) |  |  |
| Cc1nc(-c2ncn([C@@H]3O[C@H](CO)[C@@H](O)[C@H]3O)n2)no1 |  | Non-Toxic | Non-Toxic |  |  |  | 50 (≈ 177 µM) |  |
| NC(=O)c1ncn([C@@H]2O[C@H](CO)[C@@H](O)[C@H]2O)n1 [RIBAVIRIN] |  |  |  | 12.5 (≈ 51.2 µM) |  |  | 12.5 (≈ 51.2 µM) | 75 (≈ 307 µM) |
| CC(C)c1nc(-c2ncn([C@@H]3O[C@H](CO)[C@@H](O)[C@H]3O)n2)no1 | inactive | Non-Toxic | Non-Toxic |  |  |  |  |  |
